Measurements: patent US10294229B2, “Heteroaryl substituted aminopyridine compounds” (BRISTOL-MYERS SQUIBB COMPANY, priority 2015, dated 2019)

Experiments:
IRAK4 = IRAK4 (Homo sapiens (Human), UniProt Q9NWZ3); test: IRAK4 Inhibition Assay; assay type: biochemical; settings: ATP 500 μM; IRAK4 0.6 nM
Summary of the method: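 Readout: electrophoretic (LabChip) separation of fluorescent peptide substrate from phosphorylated product after EDTA quench. Reactions ran 60 min at room temperature with 0.6 nM IRAK4, 1.5 μM peptide and 500 μM ATP; inhibition referenced to no-enzyme (100%) and vehicle (0%) controls.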

[1] = Caco-2 Permeability Assay; assay type: in vitro ADME; settings: human, Caco-2, test compound 3 μM
Summary of the method: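 Bidirectional permeability measured over 2 h at 37° C, compound dosed at 3 μM in the donor compartment (apical for absorptive, basolateral for secretive) with plain buffer as receiver.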

[2] = tested on: Human whole blood stimulated with a TLR2 agonist (lipoteichoic acid), IL-6 levels; test: IRAK4 Whole Blood Assay; assay type: cell-based; settings: Homo sapiens, lipoteichoic acid 10 μg/mL
Summary of the method: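 IL-6 was quantified by cytometric bead assay in supernatants of human blood (ACD-A) stimulated for 5 h with lipoteichoic acid at 10 μg/mL final. Compound exposure preceded stimulation for 60 min at 37 °C, 5% CO2.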

Sequence of IRAK4 (Q9NWZ3 whole entry, species assumed): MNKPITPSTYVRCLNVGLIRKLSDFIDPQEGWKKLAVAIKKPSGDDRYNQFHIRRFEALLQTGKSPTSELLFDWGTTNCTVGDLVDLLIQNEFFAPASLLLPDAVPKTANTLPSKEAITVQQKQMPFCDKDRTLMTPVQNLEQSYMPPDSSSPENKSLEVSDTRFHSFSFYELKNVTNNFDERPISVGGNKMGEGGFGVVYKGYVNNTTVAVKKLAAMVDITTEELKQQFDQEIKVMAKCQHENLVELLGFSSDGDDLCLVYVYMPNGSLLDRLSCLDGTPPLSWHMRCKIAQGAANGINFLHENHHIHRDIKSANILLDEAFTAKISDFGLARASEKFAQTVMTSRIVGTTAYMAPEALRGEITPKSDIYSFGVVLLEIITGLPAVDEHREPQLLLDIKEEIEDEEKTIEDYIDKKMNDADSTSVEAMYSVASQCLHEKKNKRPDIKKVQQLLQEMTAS

| SMILES | IC50 (IRAK4) [nM] | Papp at 2 h, 3 µM [1] [×10⁻⁶ cm/s] | EC50 [2] [nM] |
| --- | --- | --- | --- |
| CCNc1cc(-n2ncc3cc(C#N)cnc32)ncc1-n1cc(CCC(C)(C)O)nn1 [Example 369, 1-(4-(ethylamino)-5-(4-(3-hydroxy-3-methylbutyl)-1H-1,2,3-triazol-1-yl)pyridin-2-yl)-1H-pyrazolo[3,4-b]pyridine-5-carbonitrile] | 7 | 6.7 | 270 |
| CC(C)(O)CCc1cn(-c2cnc(-n3ncc4cc(C#N)cnc43)cc2NCCCF)nn1 [Example 370, 1-(4-((3-fluoropropyl)amino)-5-(4-(3-hydroxy-3-methylbutyl)-1H-1,2,3-triazol-1-yl)pyridin-2-yl)-1H-pyrazolo[3,4-b]pyridine-5-carbonitrile] | 9 | 2.5 | 280 |
| CC(C)Nc1cc(-n2ncc3cc(C#N)c(N)nc32)ncc1-n1cc(CCC(C)(C)O)nn1 [Example 371, 6-amino-1-(5-(4-(3-hydroxy-3-methylbutyl)-1H-1,2,3-triazol-1-yl)-4-(isopropylamino)pyridin-2-yl)-1H-pyrazolo[3,4-b]pyridine-5-carbonitrile] | 1 | < 1.5 | 130 |
| CC(C)(O)CCc1cn(-c2cnc(-n3ncc4cc(C#N)cnc43)cc2N[C@H]2CC[C@@H](F)C2)nn1 [Example 372, 1-(4-(((1S,3R)-3-fluorocyclopentyl)amino)-5-(4-(3-hydroxy-3-methylbutyl)-1H-1,2,3-triazol-1-yl)pyridin-2-yl)-1H-pyrazolo[3,4-b]pyridine-5-carbonitrile] | 4 | 3.6 | 330 |
| CC(C)(F)CCc1cn(-c2cnc(-n3ncc4cc(C#N)cnc43)cc2N[C@@H]2CCOC2)nn1 [Example 373, (R)-1-(5-(4-(3-fluoro-3-methylbutyl)-1H-1,2,3-triazol-1-yl)-4-((tetrahydrofuran-3-yl)amino)pyridin-2-yl)-1H-pyrazolo[3,4-b]pyridine-5-carbonitrile] | 4 | 27.7 | 300 |
| CC(C)(O)CCc1cn(-c2cnc(-n3ncc4cc(C#N)cnc43)cc2N[C@@H]2CCC[C@@H]2F)nn1 [Example 375, 1-(4-(((1R,2S)-2-fluorocyclopentyl)amino)-5-(4-(3-hydroxy-3-methylbutyl)-1H-1,2,3-triazol-1-yl)pyridin-2-yl)-1H-pyrazolo[3,4-b]pyridine-5-carbonitrile] | 1 | 6.8 | 300 |
| CC(C)(O)CCc1cn(-c2cnc(-n3ncc4cc(C#N)cnc43)cc2NC(CF)CF)nn1 [Example 377, 1-(4-((1,3-difluoropropan-2-yl)amino)-5-(4-(3-hydroxy-3-methylbutyl)-1H-1,2,3-triazol-1-yl)pyridin-2-yl)-1H-pyrazolo[3,4-b]pyridine-5-carbonitrile] | 7 | < 1.5 | 240 |
| CC(C)Nc1cc(-n2ncc3cc(C#N)cnc32)ncc1-n1cc(CCC(C)(C)OC(=O)CN)nn1 [Example 378, 4-(1-(6-(5-cyano-1H-pyrazolo[3,4-b]pyridin-1-yl)-4-(isopropylamino)pyridin-3-yl)-1H-1,2,3-triazol-4-yl)-2-methylbutan-2-yl glycinate] | 2 | < 1.5 | 160 |
| CC(C)(O)CCc1cn(-c2cnc(-n3ncc4cc(C#N)cnc43)cc2NC2COCC2F)nn1 (stereo not drawn) [Example 379, 1-(4-((4-fluorotetrahydrofuran-3-yl)amino)-5-(4-(3-hydroxy-3-methylbutyl)-1H-1,2,3-triazol-1-yl)pyridin-2-yl)-1H-pyrazolo [3,4-b]pyridine-5-carbonitrile] | 5 | < 1.5 | 140 |
| CC(C)Nc1cc(-n2ncc3cc(C#N)cnc32)ncc1-n1cc(CCC(C)(C)OC(=O)C2CC2)nn1 [Example 382, 4-(1-(6-(5-cyano-1H-pyrazolo[3,4-b]pyridin-1-yl)-4-(isopropylamino)pyridin-3-yl)-1H-1,2,3-triazol-4-yl)-2-methylbutan-2-yl cyclopropanecarboxylate] | 2 | 24.8 | 460 |
| CC(C)Nc1cc(-n2ncc3cc(C#N)cnc32)ncc1-n1cc(CCC(C)(C)OC(=O)CN(C)C)nn1 [Example 384, 4-(1-(6-(5-cyano-1H-pyrazolo[3,4-b]pyridin-1-yl)-4-(isopropylamino)pyridin-3-yl)-1H-1,2,3-triazol-4-yl)-2-methylbutan-2-yl dimethylglycinate] | 2 | 13.1 | 250 |
| CC(C)Nc1cc(-n2ncc3cc(C#N)cnc32)ncc1-n1cc(C2CCN(C(=O)C(F)(F)F)CC2)nn1 [Example 386, 1-(4-(isopropylamino)-5-(4-(1-(2,2,2-trifluoroacetyl)piperidin-4-yl)-1H-1,2,3-triazol-1-yl)pyridin-2-yl)-1H-pyrazolo[3,4-b]pyridine-5-carbonitrile] | 4 | 24.8 | 200 |
| CC(C)Nc1cc(-n2ncc3cc(C#N)cnc32)ncc1-n1cc(CC[C@](C)(O)CO)nn1 [Example 387, (S)-1-(5-(4-(3,4-dihydroxy-3-methylbutyl)-1H-1,2,3-triazol-1-yl)-4-(isopropylamino)pyridin-2-yl)-1H-pyrazolo[3,4-b]pyridine-5-carbonitrile] | 8 | < 1.5 | 240 |
| CCCNc1cc(-n2ncc3cc(C#N)cnc32)ncc1-n1cc(CCC(C)(C)O)nn1 [Example 389, 1-(5-(4-(3-hydroxy-3-methylbutyl)-1H-1,2,3-triazol-1-yl)-4-(propylamino)pyridin-2-yl)-1H-pyrazolo[3,4-b]pyridine-5-carbonitrile] | 14 | 30.2 | 310 |
| CC(C)Nc1cc(-n2ncc3cc(C#N)cnc32)ncc1-n1cc(CCC(C)(C)O)cn1 [Example 390, 1-(5-(4-(3-hydroxy-3-methylbutyl)-1H-pyrazol-1-yl)-4-(isopropylamino)pyridin-2-yl)-1H-pyrazolo[3,4-b]pyridine-5-carbonitrile] | 8 | 37.1 | 270 |
| CC(C)Nc1cc(-n2ncc3cc(C#N)cnc32)ncc1-c1cn([C@H]2CC[C@H](N)CC2)nn1 [Example 392, 1-(5-(1-((1r,4r)-4-aminocyclohexyl)-1H-1,2,3-triazol-4-yl)-4-(isopropylamino)pyridin-2-yl)-1H-pyrazolo[3,4-b]pyridine-5-carbonitrile] | 3 | < 1.5 | 440 |
| COC(=O)N[C@H]1CC[C@H](n2cc(-c3cnc(-n4ncc5cc(C#N)cnc54)cc3NC(C)C)nn2)CC1 [Example 393, methyl ((1r,4r)-4-(4-(6-(5-cyano-1H-pyrazolo[3,4-b]pyridin-1-yl)-4-(isopropylamino)pyridin-3-yl)-1H-1,2,3-triazol-1-yl)cyclohexyl)carbamate] | 2 | 10.6 | 330 |
| CC(C)Nc1cc(-n2ncc3cc(C#N)cnc32)ncc1-c1cn([C@H]2CC[C@H](NCC(F)F)CC2)nn1 [Example 394, 1-(5-(1-((1r,4r)-4-((2,2-difluoroethyl)amino)cyclohexyl)-1H-1,2,3-triazol-4-yl)-4-(isopropylamino)pyridin-2-yl)-1H-pyrazolo[3,4-b]pyridine-5-carbonitrile] | 2 | 9.1 | 250 |
